We go through 18 compounds from publication PMC9505067, “Synthesis of Hydantoin Androgen Receptor Antagonists and Study on Their Antagonistic Activity” (Molecules, 2022).

One may read the IC50 as the point on the concentration scale where inhibition reaches its midpoint. Broadly, the melting point is the temperature, or range, at which the solid turns liquid.

The target in one data set is T1, androgen receptor (AR) (Homo sapiens, UniProt P10275).
T1 sequence (P10275 1-920): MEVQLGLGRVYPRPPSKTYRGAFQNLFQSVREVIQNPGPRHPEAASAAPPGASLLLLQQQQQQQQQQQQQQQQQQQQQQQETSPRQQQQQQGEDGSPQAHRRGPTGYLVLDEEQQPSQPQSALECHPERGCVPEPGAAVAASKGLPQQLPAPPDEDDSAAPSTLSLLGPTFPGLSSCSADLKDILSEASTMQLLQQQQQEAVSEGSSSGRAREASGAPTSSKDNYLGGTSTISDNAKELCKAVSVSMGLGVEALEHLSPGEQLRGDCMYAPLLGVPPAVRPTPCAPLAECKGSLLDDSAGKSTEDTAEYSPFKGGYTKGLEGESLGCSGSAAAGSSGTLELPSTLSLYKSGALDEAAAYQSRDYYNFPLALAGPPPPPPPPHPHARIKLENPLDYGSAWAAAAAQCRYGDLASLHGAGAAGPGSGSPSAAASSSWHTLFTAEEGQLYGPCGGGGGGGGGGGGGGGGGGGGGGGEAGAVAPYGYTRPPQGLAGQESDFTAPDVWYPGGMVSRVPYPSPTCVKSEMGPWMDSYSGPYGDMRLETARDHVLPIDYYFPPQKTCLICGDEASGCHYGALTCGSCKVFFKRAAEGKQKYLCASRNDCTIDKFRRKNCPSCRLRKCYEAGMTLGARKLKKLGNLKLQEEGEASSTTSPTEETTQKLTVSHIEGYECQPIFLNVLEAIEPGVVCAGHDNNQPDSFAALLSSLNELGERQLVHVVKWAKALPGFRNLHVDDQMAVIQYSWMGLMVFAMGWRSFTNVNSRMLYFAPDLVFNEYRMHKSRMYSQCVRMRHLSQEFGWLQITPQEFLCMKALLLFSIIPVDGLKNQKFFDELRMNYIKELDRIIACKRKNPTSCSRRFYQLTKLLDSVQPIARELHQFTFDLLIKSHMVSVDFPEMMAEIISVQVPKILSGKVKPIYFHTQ
The experiment in a line: AR antagonist luciferase gene reporter assay (AR plasmid pSVAR0 + MMTV-Luc, DHT at EC80). The note with it: for IC50: Antagonist Activity in CV-1 IC50, luciferase reporter in AR-transfected cells, DHT at EC80, 24 h incubation, means ± SD of three independent experiments. For orientation: In a reporter assay the amount or activity of a reporter protein is the signal.

Compound `Cc1ccc(N2C(=S)N(c3ccc(C#N)c(C(F)(F)F)c3)C(=O)C2(C)CO)cc1` (stereo not drawn) [6b, 4-(4-(hydroxymethyl)-4-methyl-5-oxo-2-thioxo-3-(p-tolyl)imidazolidin-1-yl)-2-(trifluoromethyl)benzonitrile] yielded a melting point of 190 to 192 °C. At androgen receptor (AR), the “Antagonist Activity in CV-1 Efficacy” value turned out to be 86 ± 4.2% and the IC50 is 549 ± 47.8 nM.

As to `CC1(CO)C(=O)N(c2ccc(C#N)c(C(F)(F)F)c2)C(=S)N1c1ccc(Cl)cc1` (stereo not drawn) [6d, 4-(3-(4-chlorophenyl)-4-(hydroxymethyl)-4-methyl-5-oxo-2-thioxoimidazolidin-1-yl)-2-(trifluoromethyl)benzonitrile], the melting point is 205 to 207 °C. Further, on androgen receptor (AR), the “Antagonist Activity in CV-1 Efficacy” value turned out to be 96 ± 3.8% and the IC50 was 79.3 ± 13.2 nM.

The compound `CC1(CO)C(=O)N(c2ccc(C#N)c(C(F)(F)F)c2)C(=S)N1c1ccc(Br)cc1` (stereo not drawn) [6e, 4-(3-(4-bromophenyl)-4-(hydroxymethyl)-4-methyl-5-oxo-2-thioxoimidazolidin-1-yl)-2-(trifluoromethyl)benzonitrile] registered a melting point of 206 to 208 °C. For the same compound, at androgen receptor (AR), the “Antagonist Activity in CV-1 Efficacy” value was found to be 86 ± 6.5% and the IC50 came to 117 ± 16.3 nM.

`COc1ccc(N2C(=S)N(c3ccc(C#N)c(C(F)(F)F)c3)C(=O)C2(C)CO)cc1` (stereo not drawn) [6f, 4-(4-(hydroxymethyl)-3-(4-methoxyphenyl)-4-methyl-5-oxo-2-thioxoimidazolidin-1-yl)-2-(trifluoromethyl)benzonitrile]: the melting point lay in the range of 183 to 185 °C. Moreover, on androgen receptor (AR), the “Antagonist Activity in CV-1 Efficacy” value was 89 ± 3.7% and the IC50 is 286 ± 29.5 nM.

The compound `CC1(CO)C(=O)N(c2ccc(C#N)c(C(F)(F)F)c2)C(=S)N1c1ccc(C#N)cc1` (stereo not drawn) [6g, 4-(3-(4-cyanophenyl)-4-(hydroxymethyl)-4-methyl-5-oxo-2-thioxoimidazolidin-1-yl)-2-(trifluoromethyl)benzonitrile] displayed a melting point of 234 to 236 °C. Besides, at androgen receptor (AR), the “Antagonist Activity in CV-1 Efficacy” value was 102 ± 15.5% and the IC50 came out at 338 ± 44.7 nM.

The compound `CC1(CO)C(=O)N(c2ccc(C#N)c(C(F)(F)F)c2)C(=S)N1c1ccc([N+](=O)[O-])cc1` (stereo not drawn) [6h, 4-(4-(hydroxymethyl)-4-methyl-3-(4-nitrophenyl)-5-oxo-2-thioxoimidazolidin-1-yl)-2-(trifluoromethyl)benzonitrile] came in with a melting point of 206 to 208 °C. Moreover, the IC50 on androgen receptor (AR) came out at 79600 nM.

On to `CC1(CO)C(=O)N(c2ccc(C#N)c(C(F)(F)F)c2)C(=S)N1c1ccc(C(F)(F)F)cc1` (stereo not drawn) [6i, 4-(4-(hydroxymethyl)-4-methyl-5-oxo-2-thioxo-3-(4-(trifluoromethyl)phenyl)imidazolidin-1-yl)-2-(trifluoromethyl)benzonitrile], for which the melting point lay within 178 to 180 °C. Besides, at androgen receptor (AR), the “Antagonist Activity in CV-1 Efficacy” value worked out at 102 ± 8.9% and the IC50 was determined as 68.2 ± 4.6 nM.

In the case of `COC(=O)c1ccc(N2C(=S)N(c3ccc(C#N)c(C(F)(F)F)c3)C(=O)C2(C)CO)cc1` (stereo not drawn) [6j, methyl 4-(3-(4-cyano-3-(trifluoromethyl)phenyl)-5-(hydroxymethyl)-5-methyl-4-oxo-2-thioxoimidazolidin-1-yl)benzoate], the melting point lay within 168 to 170 °C. Further, at androgen receptor (AR), the “Antagonist Activity in CV-1 Efficacy” value worked out at 95 ± 4.2% and the IC50 turned out to be 532 ± 58.2 nM.

`CNC(=O)c1ccc(N2C(=S)N(c3ccc(C#N)c(C(F)(F)F)c3)C(=O)C2(C)CO)cc1F` (stereo not drawn) [6k, 4-(3-(4-cyano-3-(trifluoromethyl)phenyl)-5-(hydroxymethyl)-5-methyl-4-oxo-2-thioxoimidazolidin-1-yl)-2-fluoro-N-methylbenzamide]: at androgen receptor (AR), the “Antagonist Activity in CV-1 Efficacy” value turned out to be 88 ± 3.5% and the IC50 was determined as 126 nM.

Regarding `CN1CCC(Oc2ccc(N3C(=S)N(c4ccc(C#N)c(C(F)(F)F)c4)C(=O)C3(C)CO)cc2)CC1` (stereo not drawn) [6l, 4-(4-(hydroxymethyl)-4-methyl-3-(4-((1-methylpiperidin-4-yl)oxy)phenyl)-5-oxo-2-thioxoimidazolidin-1-yl)-2-(trifluoromethyl)benzonitrile], the melting point is 117 to 119 °C. Further, at androgen receptor (AR), the “Antagonist Activity in CV-1 Efficacy” value is given as 92 ± 2.9% and the IC50 worked out at 337 nM.

`CC1(CO)C(=O)N(c2ccc(C#N)c(C(F)(F)F)c2)C(=O)N1c1ccccc1` (stereo not drawn) [7a, 4-(4-(hydroxymethyl)-4-methyl-2,5-dioxo-3-phenylimidazolidin-1-yl)-2-(trifluoromethyl)benzonitrile]: the melting point lay in the range of 187 to 189 °C. Further, at androgen receptor (AR), the “Antagonist Activity in CV-1 Efficacy” value was determined as 101 ± 15.1% and the IC50 is 94.8 ± 12.8 nM.

`Cc1ccc(N2C(=O)N(c3ccc(C#N)c(C(F)(F)F)c3)C(=O)C2(C)CO)cc1` (stereo not drawn) [7b, 4-(4-(hydroxymethyl)-4-methyl-2,5-dioxo-3-(p-tolyl)imidazolidin-1-yl)-2-(trifluoromethyl)benzonitrile]: the melting point fell in the range of 156 to 158 °C. Besides, on androgen receptor (AR), the “Antagonist Activity in CV-1 Efficacy” value is 95 ± 12.3% and the IC50 was 115 ± 17.6 nM.

`CC1(CO)C(=O)N(c2ccc(C#N)c(C(F)(F)F)c2)C(=O)N1c1ccc(F)cc1` (stereo not drawn) [7c, 4-(3-(4-fluorophenyl)-4-(hydroxymethyl)-4-methyl-2,5-dioxoimidazolidin-1-yl)-2-(trifluoromethyl)benzonitrile]: the melting point was 208 to 210 °C. For the same compound, on androgen receptor (AR), the “Antagonist Activity in CV-1 Efficacy” value amounted to 94 ± 14.6% and the IC50 is 67.3 ± 15.5 nM.

As to `CC1(CO)C(=O)N(c2ccc(C#N)c(C(F)(F)F)c2)C(=O)N1c1ccc(Cl)cc1` (stereo not drawn) [7d, 4-(3-(4-chlorophenyl)-4-(hydroxymethyl)-4-methyl-2,5-dioxoimidazolidin-1-yl)-2-(trifluoromethyl)benzonitrile], the melting point was 152 to 154 °C. Also, at androgen receptor (AR), the “Antagonist Activity in CV-1 Efficacy” value was 94 ± 9.7% and the IC50 amounted to 68.6 ± 22.4 nM.

`CC1(CO)C(=O)N(c2ccc(C#N)c(C(F)(F)F)c2)C(=O)N1c1ccc(Br)cc1` (stereo not drawn) [7e, 4-(3-(4-bromophenyl)-4-(hydroxymethyl)-4-methyl-2,5-dioxoimidazolidin-1-yl)-2-(trifluoromethyl)benzonitrile] yielded a melting point of 102 to 104 °C. Moreover, on androgen receptor (AR), the “Antagonist Activity in CV-1 Efficacy” value is given as 95 ± 11.2% and the IC50 stood at 84.2 ± 37.1 nM.

Take `COc1ccc(N2C(=O)N(c3ccc(C#N)c(C(F)(F)F)c3)C(=O)C2(C)CO)cc1` (stereo not drawn) [7f, 4-(4-(hydroxymethyl)-3-(4-methoxyphenyl)-4-methyl-2,5-dioxoimidazolidin-1-yl)-2-(trifluoromethyl)benzonitrile]: the melting point is 128 to 130 °C. In addition, at androgen receptor (AR), the “Antagonist Activity in CV-1 Efficacy” value is 90 ± 13.3% and the IC50 came to 416 ± 230 nM.

Consider `CC1(CO)C(=O)N(c2ccc(C#N)c(C(F)(F)F)c2)C(=O)N1c1ccc(C#N)cc1` (stereo not drawn) [7g, 4-(3-(4-cyanophenyl)-4-(hydroxymethyl)-4-methyl-2,5-dioxoimidazolidin-1-yl)-2-(trifluoromethyl)benzonitrile], for which, on androgen receptor (AR), the “Antagonist Activity in CV-1 Efficacy” value turned out to be 98 ± 11.6% and the IC50 amounted to 61 ± 6.1 nM.

Turning to `CC1(CO)C(=O)N(c2ccc(C#N)c(C(F)(F)F)c2)C(=O)N1c1ccc([N+](=O)[O-])cc1` (stereo not drawn) [7h, 4-(4-(hydroxymethyl)-4-methyl-3-(4-nitrophenyl)-2,5-dioxoimidazolidin-1-yl)-2-(trifluoromethyl)benzonitrile], the melting point was in the range of 160 to 162 °C. Further, on androgen receptor (AR), the “Antagonist Activity in CV-1 Efficacy” value came to 93 ± 9.3% and the IC50 was 48.9 ± 12.7 nM.
